Measurements as given in patent US11479551B2, “MTA-cooperative PRMT5 inhibitors” (Mirati Therapeutics, Inc., priority 2019, dated 2022).
“And” between values parts separate entries of the source, which are not always exact repeats. Equal entries are not always repeated. Where two headings read alike, the source gives them in different places.

Target: PRMT5/MEP50 complex (Homo sapiens (Human), UniProt O14744)
Test: PRMT5:MEP50 HotSpot Assay (full-length histone H2A substrate, plus and minus MTA)
Type: biochemical
Method: The PRMT5 inhibitory activity of compounds of the present invention was determined using either a PRMT5:MEP50 FlashPlate Assay (Reaction Biology Corporation) or a PRMT5:MEP50 HotSpot Assay (Reaction Biology Corporation).
The assay uses recombinant full-length histone H2A as the PRMT5 substrate. […] The reaction was stopped and transferred to filter paper for detection. The amount of tritiated H2A in each sample was determined using a scintillation counter.

[1] = IC50 + 2 μM MTA, in the presence of 2 μM MTA
[2] = in the absence of MTA, read-out: IC50

Chain of PRMT5/MEP50 complex (O14744 2-637): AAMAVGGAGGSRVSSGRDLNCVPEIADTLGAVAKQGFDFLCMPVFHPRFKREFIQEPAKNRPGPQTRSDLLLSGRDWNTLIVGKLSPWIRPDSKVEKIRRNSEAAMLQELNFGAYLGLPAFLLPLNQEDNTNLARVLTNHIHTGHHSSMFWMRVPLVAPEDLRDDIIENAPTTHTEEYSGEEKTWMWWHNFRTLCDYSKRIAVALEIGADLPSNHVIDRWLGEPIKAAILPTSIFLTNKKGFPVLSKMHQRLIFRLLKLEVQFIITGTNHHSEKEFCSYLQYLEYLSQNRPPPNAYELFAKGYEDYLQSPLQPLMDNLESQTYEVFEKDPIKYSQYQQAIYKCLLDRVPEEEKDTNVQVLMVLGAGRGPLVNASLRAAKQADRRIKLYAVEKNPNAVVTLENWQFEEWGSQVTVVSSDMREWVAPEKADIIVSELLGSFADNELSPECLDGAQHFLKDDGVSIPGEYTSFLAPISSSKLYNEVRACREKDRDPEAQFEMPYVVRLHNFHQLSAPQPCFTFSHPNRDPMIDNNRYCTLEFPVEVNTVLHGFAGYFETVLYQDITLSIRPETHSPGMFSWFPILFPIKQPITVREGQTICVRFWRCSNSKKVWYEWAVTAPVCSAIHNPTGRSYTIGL
Chain of PRMT5/MEP50 complex (Q9BQA1 2-342 partner): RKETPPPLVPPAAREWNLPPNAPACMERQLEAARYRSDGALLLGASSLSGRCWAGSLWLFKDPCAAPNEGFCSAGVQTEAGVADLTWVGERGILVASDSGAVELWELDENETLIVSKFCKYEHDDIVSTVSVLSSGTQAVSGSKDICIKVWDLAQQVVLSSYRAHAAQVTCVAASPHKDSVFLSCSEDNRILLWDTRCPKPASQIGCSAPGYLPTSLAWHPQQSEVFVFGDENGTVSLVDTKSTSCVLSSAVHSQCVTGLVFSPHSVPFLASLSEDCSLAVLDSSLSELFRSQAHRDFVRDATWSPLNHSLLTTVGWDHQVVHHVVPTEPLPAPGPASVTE

| Compound | IC50 [1] | IC50 [2] |
| --- | --- | --- |
| CCOc1ccn2ncc(-c3ccc4c(=O)[nH]nc(CN)c4c3)c2c1 [Example 4-112, 4-(aminomethyl)-6-(5-ethoxypyrazolo[1,5-a]pyridin-3-yl)phthalazin-1(2H)-one] | 1020 nM | – |
| CC(C)Oc1ccn2ncc(-c3ccc4c(=O)[nH]nc(CN)c4c3)c2c1 [Example 4-113, 4-(aminomethyl)-6-(5-isopropoxypyrazolo[1,5-a]pyridin-3-yl)phthalazin-1(2H)-one] | 561 nM | – |
| NCc1n[nH]c(=O)c2ccc(-c3cnn4ccc(Oc5ccccc5)cc34)cc12 [Example 4-114, 4-(aminomethyl)-6-(5-phenoxypyrazolo[1,5-a]pyridin-3-yl)phthalazin-1(2H)-one] | 486 nM | – |
| Cn1ncc(-c2ccc3c(=O)[nH]nc(CN)c3c2)c1OCc1ccccc1 [Example 4-115, 4-(aminomethyl)-6-(5-(benzyloxy)-1-methyl-1H-pyrazol-4-yl)phthalazin-1(2H)-one] | 377 nM | – |
| Cn1ncc(-c2ccc3c(=O)[nH]nc(CN)c3c2)c1OCC1CC1 [Example 4-116, 4-(aminomethyl)-6-(5-(cyclopropylmethoxy)-1-methyl-1H-pyrazol-4-yl)phthalazin-1(2H)-one] | 1080 nM | – |
| Cn1ncc(-c2ccc3c(=O)[nH]nc(CN)c3c2)c1CCc1ccccc1 [Example 4-117, 4-(aminomethyl)-6-(1-methyl-5-phenethyl-1H-pyrazol-4-yl)phthalazin-1(2H)-one] | 536 nM | – |
| Cc1cccc(-c2c(-c3ccc4c(=O)[nH]nc(CN)c4c3)cnn2C)c1C#N [Example 4-118, 2-(4-(4-(aminomethyl)-1-oxo-1,2-dihydrophthalazin-6-yl)-1-methyl-1H-pyrazol-5-yl)-6-methylbenzonitrile] | 724 nM | 9920 nM |
| Cn1ncc(-c2ccc3c(=O)[nH]nc(CN)c3c2)c1-c1cccc(Cl)c1C#N [Example 4-119, 2-(4-(4-(aminomethyl)-1-oxo-1,2-dihydrophthalazin-6-yl)-1-methyl-1H-pyrazol-5-yl)-6-chlorobenzonitrile] | 441 nM | 5260 nM |
| Cn1ncc(-c2ccc3c(=O)[nH]nc(CN)c3c2)c1-c1cccc[n+]1[O-] [Example 4-120, 2-(4-(4-(aminomethyl)-1-oxo-1,2-dihydrophthalazin-6-yl)-1-methyl-1H-pyrazol-5-yl)pyridine 1-oxide] | > 10000 nM | – |
| NCc1n[nH]c(=O)c2ccc(-c3cncc(Oc4cccc5cccnc45)c3)cc12 [Example 4-121, 4-(aminomethyl)-6-(5-(quinolin-8-yloxy)pyridin-3-yl)phthalazin-1(2H)-one] | 177 nM | – |
| CN(c1cncc(-c2ccc3c(=O)[nH]nc(CN)c3c2)c1)c1cccc2cccnc12 [Example 4-122, 4-(aminomethyl)-6-(5-(methyl(quinolin-8-yl)amino)pyridin-3-yl)phthalazin-1(2H)-one] | 3820 nM | – |
| CCc1cccc(-c2c(-c3ccc4c(=O)[nH]nc(CN)c4c3)cnn2C)c1C#N [Example 4-123, 2-(4-(4-(aminomethyl)-1-oxo-1,2-dihydrophthalazin-6-yl)-1-methyl-1H-pyrazol-5-yl)-6-ethylbenzonitrile] | 549 nM | – |
| CCc1ccc(-c2c(-c3ccc4c(=O)[nH]nc(CN)c4c3)cnn2C)c(C#N)c1 [Example 4-124, 2-(4-(4-(aminomethyl)-1-oxo-1,2-dihydrophthalazin-6-yl)-1-methyl-1H-pyrazol-5-yl)-5-ethylbenzonitrile] | 826 nM | – |
| CCc1ccc(C#N)c(-c2c(-c3ccc4c(=O)[nH]nc(CN)c4c3)cnn2C)c1 [Example 4-125, 2-(4-(4-(aminomethyl)-1-oxo-1,2-dihydrophthalazin-6-yl)-1-methyl-1H-pyrazol-5-yl)-4-ethylbenzonitrile] | 1000 nM | – |
| Cn1ncc(-c2ccc3c(=O)[nH]nc(CN)c3c2)c1-c1ccc(C2CC2)cc1C#N [Example 4-126, 2-(4-(4-(aminomethyl)-1-oxo-1,2-dihydrophthalazin-6-yl)-1-methyl-1H-pyrazol-5-yl)-5-cyclopropylbenzonitrile] | 361 nM | – |
| COc1cc(C#N)c(-c2c(-c3ccc4c(=O)[nH]nc(CN)c4c3)cnn2C)cc1Cl [Example 4-133, 2-(4-(4-(aminomethyl)-1-oxo-1,2-dihydrophthalazin-6-yl)-1-methyl-1H-pyrazol-5-yl)-4-chloro-5-methoxybenzonitrile] | 1570 nM | – |
| CCc1ccc(-c2c(-c3ccc4c(=O)[nH]nc(CN)c4c3)cnn2C)cc1 [Example 4-134, 4-(aminomethyl)-6-(5-(4-ethylphenyl)-1-methyl-1H-pyrazol-4-yl)phthalazin-1(2H)-one] | 2730 nM | – |
| Cn1ncc(-c2ccc3c(=O)[nH]nc(CN)c3c2)c1-c1ccc(OC2CC2)cc1 [Example 4-136, 4-(aminomethyl)-6-(5-(4-cyclopropoxyphenyl)-1-methyl-1H-pyrazol-4-yl)phthalazin-1(2H)-one] | 872 nM | – |

| Compound | IC50 [1] | IC50 [2] |
| --- | --- | --- |
| Cn1ncc(-c2ccc3c(=O)[nH]nc(CN)c3c2)c1-c1ccc(OC2CCC2)cc1 [Example 4-138, 4-(aminomethyl)-6-(5-(4-cyclobutoxyphenyl)-1-methyl-1H-pyrazol-4-yl)phthalazin-1(2H)-one] | 354 nM | – |
| Cn1ncc(-c2ccc3c(=O)[nH]nc(CN)c3c2)c1-c1ccccc1Cl [Example 4-143, 4-(aminomethyl)-6-(5-(2-chlorophenyl)-1-methyl-1H-pyrazol-4-yl)phthalazin-1(2H)-one] | 1170 nM | – |
| Cn1ncc(-c2ccc3c(=O)[nH]nc(CN)c3c2)c1-c1c(Cl)cccc1Cl [Example 4-144, 4-(aminomethyl)-6-(5-(2,6-dichlorophenyl)-1-methyl-1H-pyrazol-4-yl)phthalazin-1(2H)-one] | 454 nM | – |
| Cn1ncc(-c2ccc3c(=O)[nH]nc(CN)c3c2)c1-c1c(F)cccc1C#N [Example 4-152, 2-(4-(4-(aminomethyl)-1-oxo-1,2-dihydrophthalazin-6-yl)-1-methyl-1H-pyrazol-5-yl)-3-fluorobenzonitrile] | 978 nM and 1910 nM | – |
| Cn1ncc(-c2ccc3c(=O)[nH]nc(CN)c3c2)c1-c1ccccc1C(F)F [Example 4-153, 4-(aminomethyl)-6-(5-(2-(difluoromethyl)phenyl)-1-methyl-1H-pyrazol-4-yl)phthalazin-1(2H)-one] | 1650 nM | – |
| Cn1ncc(-c2ccc3c(=O)[nH]nc(CN)c3c2)c1OCc1ccccc1Cl [Example 4-154, 4-(aminomethyl)-6-(5-((2-chlorobenzyl)oxy)-1-methyl-1H-pyrazol-4-yl)phthalazin-1(2H)-one] | 3280 nM | – |
| Cn1ncc(-c2ccc3c(=O)[nH]nc(CN)c3c2)c1OCc1cccc(Cl)c1 [Example 4-155, 4-(aminomethyl)-6-(5-((3-chlorobenzyl)oxy)-1-methyl-1H-pyrazol-4-yl)phthalazin-1(2H)-one] | 3460 nM | – |
| Cn1ncc(-c2ccc3c(=O)[nH]nc(CN)c3c2)c1OCc1ccc(Cl)cc1 [Example 4-156, 4-(aminomethyl)-6-(5-((4-chlorobenzyl)oxy)-1-methyl-1H-pyrazol-4-yl)phthalazin-1(2H)-one] | 9130 nM | – |
| COc1ccc(Oc2cncc(-c3ccc4c(=O)[nH]nc(CN)c4c3)c2)c(OC)c1 [Example 4-162, 4-(aminomethyl)-6-(5-(2,4-dimethoxyphenoxy)pyridin-3-yl)phthalazin-1(2H)-one] | 842 nM | – |
| Cn1ncc(-c2ccc3c(=O)[nH]nc(CN)c3c2)c1-c1cc(Cl)cc(Cl)c1C#N [Example 4-165, 2-(4-(4-(aminomethyl)-1-oxo-1,2-dihydrophthalazin-6-yl)-1-methyl-1H-pyrazol-5-yl)-4,6-dichlorobenzonitrile] | 2410 nM | – |
| Cn1ncc(-c2ccc3c(=O)[nH]nc(CN)c3c2)c1-c1cc2cccnc2cc1C#N [Example 4-166, 6-(4-(4-(aminomethyl)-1-oxo-1,2-dihydrophthalazin-6-yl)-1-methyl-1H-pyrazol-5-yl)quinoline-7-carbonitrile] | 4510 nM | – |
| Cn1ncc(-c2ccc3c(=O)[nH]nc(CN)c3c2)c1-c1cc2ncccc2cc1C#N [Example 4-167, 7-(4-(4-(aminomethyl)-1-oxo-1,2-dihydrophthalazin-6-yl)-1-methyl-1H-pyrazol-5-yl)quinoline-6-carbonitrile] | 6620 nM | – |
| COc1cc(Cl)cc(-c2c(-c3ccc4c(=O)[nH]nc(CN)c4c3)cnn2C)c1C#N [Example 4-168, 2-(4-(4-(aminomethyl)-1-oxo-1,2-dihydrophthalazin-6-yl)-1-methyl-1H-pyrazol-5-yl)-4-chloro-6-methoxybenzonitrile] | 1370 nM | – |
| COc1ccc(-c2c(-c3ccc4c(=O)[nH]nc(CN)c4c3)cnn2C)c(C#N)c1Cl [Example 4-170, 6-(4-(4-(aminomethyl)-1-oxo-1,2-dihydrophthalazin-6-yl)-1-methyl-1H-pyrazol-5-yl)-2-chloro-3-methoxybenzonitrile] | 728 nM | – |
| CN(C)c1c(-c2ccc3c(=O)[nH]nc(CN)c3c2)cnn1C [Example 4-171, 4-(aminomethyl)-6-(5-(dimethylamino)-1-methyl-1H-pyrazol-4-yl)phthalazin-1(2H)-one] | 4440 nM | – |
| CCOc1ccc(-c2c(-c3ccc4c(=O)[nH]nc(CN)c4c3)cnn2C)c(C#N)c1 [Example 4-173, 2-(4-(4-(aminomethyl)-1-oxo-1,2-dihydrophthalazin-6-yl)-1-methyl-1H-pyrazol-5-yl)-5-ethoxybenzonitrile] | 1600 nM | – |
| Cn1ncc(-c2ccc3c(=O)[nH]nc(CN)c3c2)c1OCc1c(Cl)cccc1C#N [Example 4-174, 2-(((4-(4-(aminomethyl)-1-oxo-1,2-dihydrophthalazin-6-yl)-1-methyl-1H-pyrazol-5-yl)oxy)methyl)-3-chlorobenzonitrile] | > 10000 nM | – |
| Cn1ncc(-c2ccc3c(=O)[nH]nc(CN)c3c2)c1-c1cccc(OC2CC2)c1C#N [Example 4-175, 2-(4-(4-(aminomethyl)-1-oxo-1,2-dihydrophthalazin-6-yl)-1-methyl-1H-pyrazol-5-yl)-6-cyclopropoxybenzonitrile] | 1120 nM | – |
